For test [1], the target named is Kelch domain of human KEAP1 (321-624 aa) (Homo sapiens (Human), UniProt Q14145). Kind of test: KEAP1 KELCH ThermoFluor binding assay.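 Further: Ligand-induced melting temperature shift of E. coli-expressed KEAP1 Kelch protein, Kd estimated from concentration-response curves of ΔTm.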 The conditions noted are these: KEAP Kelch […], 1,8-ANS, pH 7.0, average of results obtained, read-out: Tf Kd.
Test [2] relates to Glo-Response ARE-luc2P HEK293 cell line. Kind of test: ARE luciferase reporter cell-based assay.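 Further: luciferase signal tracks Nrf2 activation of the ARE once compounds disrupt KEAP1-Nrf2 binding, read with One-Glo reagent, DMSO serving as low control.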 Particulars: Homo sapiens, HEK293, 24 h, average of results obtained.

Usually Kd stands for the equilibrium constant for the complex coming apart. Usually EC50 stands for the concentration giving half of the maximal effect. Read a high EC50 as weaker potency.

A value given as a limit tells only on which side of the number the result lay.

Chain of Kelch domain of human KEAP1 (321-624 aa) (Q14145 321-624): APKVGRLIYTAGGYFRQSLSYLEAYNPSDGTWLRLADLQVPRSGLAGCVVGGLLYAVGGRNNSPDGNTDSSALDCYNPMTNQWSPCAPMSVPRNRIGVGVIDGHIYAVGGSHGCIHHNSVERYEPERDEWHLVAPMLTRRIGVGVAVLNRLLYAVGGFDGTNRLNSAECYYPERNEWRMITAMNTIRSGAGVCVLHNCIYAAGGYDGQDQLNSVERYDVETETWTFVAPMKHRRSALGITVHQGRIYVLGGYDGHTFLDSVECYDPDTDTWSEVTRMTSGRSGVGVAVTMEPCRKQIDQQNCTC

As for `Cc1ccc([C@@H](CC(=O)O)c2cc(OC3CC3)c3c(c2)nnn3C)cc1CN1C[C@H]2CCCN2c2ncccc2S1(=O)=O` (single isomer, unassigned) [Example 6, (*R)-3-(7-Cyclopropoxy-1-methyl-1H-benzo[d][1,2,3]triazol-5-yl)-3-(3-(((R)-5,5-dioxido-7a,8,9,10-tetrahydropyrido[2,3-f]pyrrolo[2,1-d][1,2,5]thiadiazepin-6(7H)-yl)methyl)-4-methylphenyl)propanoic Acid], the Kd in test [1] turned out to be 0.089 nM. For the same compound, in test [2], the EC50 is 42 nM.
For `Cc1ccc(C(CC(=O)O)c2ccn3c(C)nnc3c2)cc1CN1CC(C)(C)Oc2ccccc2S1(=O)=O` (racemic) [Example 161, (R/S)-3-(3-((4,4-Dimethyl-1,1-dioxido-3,4-dihydro-2H-benzo[b][1,4,5]oxathiazepin-2-yl)methyl)-4-methylphenyl)-3-(3-methyl-[1,2,4]triazolo[4,3-a]pyridin-7-yl)propanoic Acid] the same measures were 2.8 nM and 15900 nM.
For `Cc1ccc(C(CC(=O)O)c2cc(OC(F)F)c3c(c2)nnn3C)cc1CN1C[C@H]2CCCCN2c2ncccc2S1(=O)=O` (stereo in doubt) [Example 1, 3-(7-(Difluoromethoxy)-1-methyl-1H-benzo[d][1,2,3]triazol-5-yl)-3-(3-(((*R)-5,5-dioxido-7,7a,8,9,10,11-hexahydro-6H-dipyrido[2,1-d:2′,3′-f][1,2,5]thiadiazepin-6-yl)methyl)-4-methylphenyl)propanoic acid] the same measures were 0.042 nM and 35 nM.
For `CCn1nnc2c(C)c(C(CC(=O)O)c3ccc(C)c(CN4C[C@@H]5CCCN5c5ncccc5S4(=O)=O)c3)ccc21` (mixture of isomers) [Example 155, (R/S)-3-(3-(((S)-5,5-Dioxido-7a,8,9,10-tetrahydropyrido[2,3-f]pyrrolo[2,1-d][1,2,5]thiadiazepin-6(7H)-yl)methyl)-4-methylphenyl)-3-(1-ethyl-4-methyl-1H-benzo[d][1,2,3]triazol-5-yl)propanoic Acid] the same measures were < 1 nM and 6.1 nM.
In the case of `CCn1nnc2c(C)c([C@@H](c3cc(CN4CC5(CC5)Oc5ncc(C)cc5S4(=O)=O)c(C)cn3)C(C)(C)C(=O)O)ccc21` (single isomer, unassigned) [Example 665, (*R)-3-(1-Ethyl-4-methyl-1H-benzo[d][1,2,3]triazol-5-yl)-2,2-dimethyl-3-(5-methyl-4-((8′-methyl-1′,1′-dioxidospiro[cyclopropane-1,4′-pyrido[2,3-b][1,4,5]oxathiazepin]-2′(3′H)-yl)methyl)pyridin-2-yl)propanoic Acid], in test [1], the Kd is 180 nM. The response in test [2] was half-maximal at 497 nM (EC50).
For `Cc1ccc([C@H](c2ccn3c(C(F)(F)F)nnc3c2C)C(C)(C)C(=O)O)cc1CN1C[C@]2(CCOC2)Oc2ncccc2S1(=O)=O` (single isomer, unassigned) [Example 385, (*R)-3-(3-(((*S)-1′,1′-Dioxido-4,5-dihydro-2H-spiro[furan-3,4′-pyrido[2,3-b][1,4,5]oxathiazepin]-2′(3′H)-yl)methyl)-4-methylphenyl)-2,2-dimethyl-3-(8-methyl-3-(trifluoromethyl)-[1,2,4]triazolo[4,3-a]pyridin-7-yl)propanoic Acid] the same measures were < 1 nM and 1.8 nM.
For `Cc1ccc([C@H](CC(=O)O)c2ccn3c(C(F)(F)F)nnc3c2C)cc1CN1C[C@@H]2CCCCN2c2ncccc2S1(=O)=O` (single isomer, unassigned) [Example 290, (*S)-3-(3-(((*S)-5,5-Dioxido-7,7a,8,9,10,11-hexahydro-6H-dipyrido[2,1-d:2′,3′-f][1,2,5]thiadiazepin-6-yl)methyl)-4-methylphenyl)-3-(8-methyl-3-(trifluoromethyl)-[1,2,4]triazolo[4,3-a]pyridin-7-yl)propanoic Acid] the same measures were < 1 nM and 8.8 nM.
For `Cc1ccc([C@@H](c2ccn3c(C(F)F)nnc3c2C)C(C)(C)C(=O)O)cc1CN1CC2(CCOCC2)Oc2nc(OCCN3CCCC3)c(C)cc2S1(=O)=O` (single isomer, unassigned) [Example 377, (*S)-3-(3-(Difluoromethyl)-8-methyl-[1,2,4]triazolo[4,3-a]pyridine-7-yl)-2,2-dimethyl-3-(4-methyl-3-((8′-methyl-1′,1′-dioxido-7′-(2-(pyrrolidin-1-yl)ethoxy)-2,3,5,6-tetrahydrospiro[pyran-4,4′-pyrido[2,3-b][1,4,5]oxathiazepin]-2′(3′H)-yl)methyl)phenyl)propanoic Acid] the same measures were < 1 nM and 44.9 nM.
Consider `CCn1nnc2c(C)c([C@H](CC(=O)O)c3ccc(C)c(CN4CC5(COC5)Oc5ccccc5S4(=O)=O)n3)ccc21` (single isomer, unassigned) [Example 238, (*S)-3-(6-((1,1-Dioxidospiro[benzo[b][1,4,5]oxathiazepine-4,3′-oxetan]-2(3H)-yl)methyl)-5-methylpyridin-2-yl)-3-(1-ethyl-4-methyl-1H-benzo[d][1,2,3]triazol-5-yl)propanoic Acid], for which, in test [1], the equilibrium dissociation constant (Kd) was < 1 nM. Also, the EC50 in test [2] stood at 9.7 nM.
For `Cc1ccc([C@H](CC(=O)O)c2ccn3c(C(F)(F)F)nnc3c2C)cc1CN1CC2(CC2)N(C)c2ncccc2S1(=O)=O` (single isomer, unassigned) [Example 184, (*S)-3-(4-Methyl-3-((5′-methyl-1′,1′-dioxido-5′H-spiro[cyclopropane-1,4′-pyrido[2,3-f][1,2,5]thiadiazepin]-2′(3′H)-yl)methyl)phenyl)-3-(8-methyl-3-(t*rifluoromethyl)-[1,2,4]triazolo[4,3-a]pyridin-7-yl)propanoic Acid] the same measures were 1.4 nM and 130 nM.
For `Cc1ccc([C@@H](CC(=O)O)c2ccn3c(C)nnc3c2)cc1CN1C[C@H]2CCCN2c2ncccc2S1(=O)=O` (single isomer, unassigned) [Example 164, (*R)-3-(3-(((R)-5,5-Dioxido-7a,8,9,10-tetrahydropyrido[2,3-f]pyrrolo[2,1-d][1,2,5]thiadiazepin-6(7H)-yl)methyl)-4-methylphenyl)-3-(3-methyl-[1,2,4]triazolo[4,3-a]pyridin-7-yl)propanoic Acid] the same measures were 2.3 nM and 11200 nM.
For `Cc1ccc([C@@H](c2ccn3c(C(F)(F)F)nnc3c2C)C(C)(C)C(=O)O)cc1CN1CC2(CCOCC2)Oc2nc(CCC(N)=O)ccc2S1(=O)=O` (single isomer, unassigned) [Example 599, (*S)-3-(3-((7′-(3-amino-3-oxopropyl)-1′,1′-dioxido-2,3,5,6-tetrahydrospiro[pyran-4,4′-pyrido[2,3-b][1,4,5]oxathiazepin]-2′(3′H)-yl)methyl)-4-methylphenyl)-2,2-dimethyl-3-(8-methyl-3-(trifluoromethyl)-[1,2,4]triazolo[4,3-a]pyridine-7-yl)propanoic Acid] the same measures were < 1 nM and 246 nM.
Turning to `Cc1cnc2c(c1)S(=O)(=O)N(Cc1cc([C@@H](c3ccn4c(C(F)(F)F)nnc4c3C)C(C)(C)C(=O)O)ccc1C)CC1(CNC1)O2` (single isomer, unassigned) [Example 342, (*S)-2,2-Dimethyl-3-(4-methyl-3-((8′-methyl-1′,1′-dioxidospiro[azetidine-3,4′-pyrido[2,3-b][1,4,5]oxathiazepin]-2′(3′H)-yl)methyl)phenyl)-3-(8-methyl-3-(trifluoromethyl)-[1,2,4]triazolo[4,3-a]pyridin-7-yl)propanoic Acid], the Kd in test [1] is < 1 nM. The same compound registered a concentration for a half-maximal effect (EC50) in test [2] of 5.6 nM.
For `Cc1ccc(C(CC(=O)O)c2ccc3c(nnn3CC3CC3)c2C)cc1CN1C[C@H]2CCCN2c2ncccc2S1(=O)=O` (stereo partly drawn) [Example 400, 3-(1-(cyclopropylmethyl)-4-methyl-1H-benzo[d][1,2,3]triazol-5-yl)-3-(3-(((R)-5,5-dioxido-7a,8,9,10-tetrahydropyrido[2,3-f]pyrrolo[2,1-d][1,2,5]thiadiazepin-6(7H)-yl)methyl)-4-methylphenyl)propanoic acid] the same measures were < 1 nM and 4.1 nM.
For `Cc1ccc([C@H](CC(=O)O)c2ccn3c(C(F)F)nnc3c2C)cc1CN1CC2(CC2)Oc2ncccc2S1(=O)=O` (single isomer, unassigned) [Example 473, (*S)-3-(3-(Difluoromethyl)-8-methyl-[1,2,4]triazolo[4,3-a]pyridin-7-yl)-3-(3-((1′,1′-dioxidospiro[cyclopropane-1,4′-pyrido[2,3-b][1,4,5]oxathiazepin]-2′(3′H)-yl)methyl)-4-methylphenyl)propanoic Acid] the same measures were < 1 nM and 104 nM.
With `CC[C@@H]1CN(Cc2nc([C@H](CC(=O)O)c3ccc4c(nnn4C4CC4)c3C)ccc2C)S(=O)(=O)c2cccnc2O1` (single isomer, unassigned) [Example 176, (*R)-3-(1-Cyclopropyl-4-methyl-1H-benzo[d][1,2,3]triazol-5-yl)-3-(6-(((R)-4-ethyl-1,1-dioxido-3,4-dihydro-2H-pyrido[2,3-b][1,4,5]oxathiazepin-2-yl)methyl)-5-methylpyridin-2-yl)propanoic Acid], in test [1], the Kd is < 1 nM. For the same compound, in test [2], the EC50 was determined as 31 nM.
For `Cc1ccc([C@H](c2ccn3c(C(F)(F)F)nnc3c2C)C(C)(C)C(=O)O)cc1CN1CC2(CCOCC2)Oc2nc(OCCN3CCOCC3)ccc2S1(=O)=O` (single isomer, unassigned) [Example 48, (*R)-2,2-Dimethyl-3-(4-methyl-3-((7′-(2-morpholinoethoxy)-1′,1′-dioxido-2,3,5,6-tetrahydrospiro[pyran-4,4′-pyrido[2,3-b][1,4,5]oxathiazepin]-2′(3′H)-yl)methyl)phenyl)-3-(8-methyl-3-trifluoromethyl)-[1,2,4]triazolo[4,3-a]pyridine-7-yl)propanoic Acid] the same measures were 820 nM and 6270 nM.

These data come from patent US10947252B2, “Inhibitors of KEAP1-Nrf2 protein-protein interaction” (Janssen Pharmaceutica NV, priority 2018, dated 2021).
